Assay results: DBAASP
≈ marks a conversion by molar mass, not a printed value.

Experiments:
Experiment in all cases: ≥ marks a high value that may be exact or a test limit, other limits are often not marked, values filed in µg/mL are converted to µM
[1] = test system: Staphylococcus aureus ATCC 33592
[2] = test system: Pseudomonas aeruginosa PAO1
[3] = test system: Escherichia coli ATCC 51659
[4] = test system: Acinetobacter baumannii ATCC BAA-1794
[5] = test system: Staphylococcus xylosus
[6] = test system: Escherichia coli DH5alpha
[7] = test system: Bacillus subtilis KCTC 1998
[8] = test system: Proteus vulgaris KCTC 2433
[9] = test system: Candida albicans KCTC 7270
[10] = test system: Aspergillus flavus KCTC 6905
[11] = test system: Staphylococcus epidermidis ATCC 12228
[12] = test system: Aspergillus fumigatus KCTC 6145
[13] = test system: Listeria monocytogenes KCTC 3710
[14] = test system: Pseudomonas aeruginosa ATCC 15692
[15] = test system: Aspergillus awamori KCTC 6915
[16] = test system: Escherichia coli ATCC 25922
[17] = test system: Salmonella typhimurium KCTC 1926
[18] = test system: Staphylococcus aureus ATCC 25923
[19] = test system: Trichosporon beigelii KCTC 7707
[20] = test system: Aspergillus parasiticus KCTC 6598
[21] = test system: Pseudomonas aeruginosa ATCC 9027
[22] = test system: Staphylococcus aureus ATCC 6538
[23] = test system: Staphylococcus aureus 1550
[24] = test system: Micrococcus luteus ATCC 9341
[25] = test system: Escherichia coli ATCC 2592
[26] = test system: Batrachochytrium dendrobatidis JEL-197
[27] = test system: Actinomyces naeslundii ATCC 12104
[28] = test system: Lacticaseibacillus casei ATCC 393
[29] = test system: Actinomyces viscosus ATCC 15987
[30] = test system: Streptococcus gordonii DL1
[31] = test system: Limosilactobacillus fermentum ATCC 9338
[32] = test system: Lactobacillus acidophilus ATCC 14931
[33] = test system: Streptococcus mutans UA159
[34] = test system: Streptococcus sanguinis ATCC 10556
[35] = test system: Pseudomonas aeruginosa CMCCB 10104
[36] = test system: Candida albicans ATCC 2002
[37] = test system: Staphylococcus aureus ATCC 2592

SMILES: CC(C)C[C@H](NC(=O)[C@H](CCCCN)NC(=O)[C@H](CCC(=O)O)NC(=O)[C@H](CCCCN)NC(=O)[C@@H](NC(=O)[C@H](CCCCN)NC(=O)[C@H](CCCCN)NC(=O)[C@H](Cc1ccccc1)NC(=O)[C@H](Cc1cnc[nH]1)NC(=O)[C@H](CCC(=O)O)NC(=O)[C@H](CO)NC(=O)[C@H](Cc1ccccc1)NC(=O)[C@H](Cc1c[nH]c2ccccc12)NC(=O)[C@H](CC(N)=O)NC(=O)[C@H](CCCN=C(N)N)NC(=O)[C@@H](NC(=O)[C@@H](N)CCCCN)[C@@H](C)O)C(C)C)C(=O)N[C@@H](CCCCN)C(=O)N[C@@H](CC(=O)O)C(=O)N[C@H](C(=O)N[C@@H](Cc1ccccc1)C(=O)N[C@@H](C)C(=O)O)[C@@H](C)O [KTRNWFSEHFKKVKEKLKDTFA]
- MIC [1]: ≥ 90.3 µM
- MIC [2]: > 90.3 µM
- MIC [3]: ≥ 90.3 µM
- MIC [4]: ≥ 90.3 µM

SMILES: CC[C@H](C)[C@H](NC(=O)[C@H](CCCCN)NC(=O)[C@H](CCCCN)NC(=O)[C@@H](N)CCCCN)C(=O)N[C@H](C(=O)N[C@H](C(=O)N[C@H](C(=O)N[C@H](C(=O)N[C@H](C(=O)N[C@@H](CCCCN)C(=O)N[C@@H](CCCCN)C(=O)N[C@@H](CCCCN)C(=O)O)[C@@H](C)CC)[C@@H](C)CC)[C@@H](C)CC)[C@@H](C)CC)[C@@H](C)CC [KKKIIIIIIKKK]
- MIC [5]: 0.5 µM (≈ 0.733 µg/mL)
- MIC [6]: 8 µM (≈ 11.7 µg/mL)

SMILES: CC[C@H](C)[C@H](NC(=O)[C@H](CCCCN)NC(=O)[C@H](CCCCN)NC(=O)[C@H](Cc1ccccc1)NC(=O)[C@H](CC(C)C)NC(=O)[C@H](CCCCN)NC(=O)[C@H](CCCCN)NC(=O)[C@H](CC(C)C)NC(=O)[C@H](CCCN=C(N)N)NC(=O)[C@H](CCCCN)NC(=O)[C@H](C)N)C(=O)N[C@@H](Cc1c[nH]c2ccccc12)C(=O)N[C@@H](CC(N)=O)C(=O)N[C@@H](Cc1c[nH]c2ccccc12)C(=O)N[C@@H](CCCCN)C(N)=O [AKRLKKLFKKIWNWK]
- MIC [7]: 2 µM (≈ 3.97 µg/mL)
- MIC [8]: 4 µM (≈ 7.95 µg/mL)
- MIC [9]: 8 µM (≈ 15.9 µg/mL)
- MIC [10]: 16 µM (≈ 31.8 µg/mL)
- MIC [11]: 2.83 µM (≈ 5.62 µg/mL)
- MIC [12]: 8 µM (≈ 15.9 µg/mL)
- MIC [13]: 2 µM (≈ 3.97 µg/mL)
- MIC [14]: 1 µM (≈ 1.99 µg/mL)
- MIC [15]: 16 µM (≈ 31.8 µg/mL)
- MIC [16]: 4 µM (≈ 7.95 µg/mL)
- MIC [17]: 1 µM (≈ 1.99 µg/mL)
- MIC [18]: 2 µM (≈ 3.97 µg/mL)
- MIC [19]: 16 µM (≈ 31.8 µg/mL)
- MIC [20]: 8 µM (≈ 15.9 µg/mL)

SMILES: CC(C)C[C@H](NC(=O)[C@@H](NC(=O)[C@H](CCCCN)NC(=O)[C@H](Cc1ccccc1)NC(=O)[C@@H](NC(=O)[C@@H](NC(=O)[C@H](CCCCN)NC(=O)[C@@H](N)CC(C)C)C(C)C)C(C)C)C(C)C)C(=O)N[C@@H](Cc1ccccc1)C(=O)N[C@@H](CCCCN)C(=O)O [LKVVFKVLFK]
- MIC [21]: 13.1 µM (≈ 16 µg/mL)
- MIC [22]: 10.2 µM (≈ 12.5 µg/mL)
- MIC [23]: 13.1 µM (≈ 16 µg/mL)
- MIC [24]: 9.01 µM (≈ 11 µg/mL)
- MIC [25]: 18 µM (≈ 22 µg/mL)

SMILES: CC[C@H](C)[C@H](NC(=O)[C@H](CCCCN)NC(=O)[C@H](CCCCN)NC(=O)[C@H](CC(C)C)NC(=O)[C@@H](NC(=O)[C@H](CCC(N)=O)NC(=O)CNC(=O)[C@H](C)NC(=O)[C@@H](NC(=O)CNC(=O)[C@H](C)NC(=O)[C@@H](NC(=O)[C@@H](NC(=O)[C@@H]1CCCN1C(=O)[C@H](Cc1ccccc1)NC(=O)[C@@H](N)Cc1ccccc1)[C@@H](C)CC)C(C)C)C(C)C)C(C)C)C(=O)N[C@@H](Cc1ccc(O)cc1)C(=O)N[C@H]1CSSC[C@@H](C(=O)O)NC(=O)[C@H](CCCCN)NC(=O)[C@H](CCCCN)NC(=O)[C@H](CO)NC(=O)[C@H]([C@@H](C)CC)NC(=O)[C@H]([C@@H](C)O)NC1=O [FFPIVAGVAGQVLKKIYCTISKKC]
- MIC [26]: 20 µM (≈ 52.2 µg/mL)
- MIC [16]: 14 µM (≈ 36.6 µg/mL)

SMILES: CC(C)C[C@H](NC(=O)CN)C(=O)N[C@@H](CC(C)C)C(=O)N[C@@H](Cc1c[nH]c2ccccc12)C(=O)N[C@@H](Cc1cnc[nH]1)C(=O)N[C@@H](CC(C)C)C(=O)N[C@@H](CC(C)C)C(=O)N[C@@H](Cc1cnc[nH]1)C(=O)N[C@@H](Cc1cnc[nH]1)C(=O)N[C@@H](CC(C)C)C(=O)N[C@@H](CC(C)C)C(=O)N[C@@H](Cc1cnc[nH]1)C(=O)N[C@@H](CC(C)C)C(=O)N[C@@H](CC(C)C)C(=O)N[C@@H](Cc1cnc[nH]1)C(=O)N[C@@H](Cc1cnc[nH]1)C(N)=O [GLLWHLLHHLLHLLHH]
- MIC [27]: ≥ 257 µM
- MIC [28]: 4.02 µM (≈ 8 µg/mL)
- MIC [29]: ≥ 257 µM
- MIC [30]: ≥ 64.3 µM
- MIC [31]: 16.1 µM (≈ 32 µg/mL)
- MIC [32]: 4.02 µM (≈ 8 µg/mL)
- MIC [33]: ≥ 257 µM
- MIC [34]: ≥ 64.3 µM

SMILES: CC[C@H](C)[C@H](N)C(=O)N[C@@H](CC(C)C)C(=O)NCC(=O)N1CCC[C@H]1C(=O)N[C@H](C(=O)N[C@@H](CC(C)C)C(=O)NCC(=O)N[C@@H](CC(C)C)C(=O)N[C@H](C(=O)NCC(=O)N[C@@H](CC(N)=O)C(=O)N[C@@H](C)C(=O)N[C@@H](CC(C)C)C(=O)NCC(=O)NCC(=O)N[C@@H](CC(C)C)C(=O)N[C@H](C(=O)N[C@@H](CCCCN)C(=O)N[C@@H](CCCCN)C(=O)N[C@H](C(N)=O)[C@@H](C)CC)[C@@H](C)CC)C(C)C)C(C)C [ILGPVLGLVGNALGGLIKKI]
- MIC [35]: 10.3 µM (≈ 20 µg/mL)
- MIC [36]: 2.57 µM (≈ 5 µg/mL)
- MIC [37]: 5.14 µM (≈ 10 µg/mL)
- MIC [16]: 10.3 µM (≈ 20 µg/mL)
